Assay: Example 3: respiratory infections and overall survival
Assay type: in vivo
Excerpt: The median age at enrollment was 42.5 years (range, 26-77). Allogeneic HCT was predominantly performed with myeloablative conditioning (n=44, 75%) and peripheral blood stem cells (n=54, 92%) from an HLA-matched donor (n=53, 90%). The median time from cGVHD diagnosis to enrollment was 22 months (range, 1-161). […] Most subjects (n=39, 66%) had at least 4 organs involved at enrollment. The median number of prior lines of systemic therapy was 3 (range, 1-6). Overall cGVHD response to the line of systemic therapy prior to enrollment was partial response (n=12, 20%), stable disease (n=25, 42%), progressive disease (n=12, 20%) or unknown (n=10, 17%). […] At the time of analysis, 16 subjects remained on therapy. […] Thirty-one subjects (53%) experienced at least 1 respiratory infection (any grade) while on treatment, with 11 subjects experiencing 32 episodes. These infections were categorized as upper respiratory infections (n=33) or pneumonia (n=13). […] With a median follow-up among survivors of 27 months (range, 1.8-55), the 2-year overall survival is 82% (95% CI: 70, 90).

**Q.** Which results are given for CC(C)NC(=O)COc1cccc(-c2nc(Nc3ccc4[nH]ncc4c3)c3ccccc3n2)c1 [Belumosudil, 2-{3-[4-(1H-indazol-5-ylamino)-2-quinazolinyl]phenoxy}-N-(propan-2-yl) acetamide]?
**A.** Subjects with at least 1 respiratory infection (any grade) on treatment (59 BOS subjects): 53%; 2-year overall survival (95% CI: 70, 90): 82%

— patent publication US20250255867A1 (Kadmon Corporation, LLC, priority 2022, published 2025)
